For data set [1], the target named is T1, UDP-glucuronosyltransferase 2B7 (Homo sapiens, UniProt P16662).
T1 sequence (P16662 whole entry): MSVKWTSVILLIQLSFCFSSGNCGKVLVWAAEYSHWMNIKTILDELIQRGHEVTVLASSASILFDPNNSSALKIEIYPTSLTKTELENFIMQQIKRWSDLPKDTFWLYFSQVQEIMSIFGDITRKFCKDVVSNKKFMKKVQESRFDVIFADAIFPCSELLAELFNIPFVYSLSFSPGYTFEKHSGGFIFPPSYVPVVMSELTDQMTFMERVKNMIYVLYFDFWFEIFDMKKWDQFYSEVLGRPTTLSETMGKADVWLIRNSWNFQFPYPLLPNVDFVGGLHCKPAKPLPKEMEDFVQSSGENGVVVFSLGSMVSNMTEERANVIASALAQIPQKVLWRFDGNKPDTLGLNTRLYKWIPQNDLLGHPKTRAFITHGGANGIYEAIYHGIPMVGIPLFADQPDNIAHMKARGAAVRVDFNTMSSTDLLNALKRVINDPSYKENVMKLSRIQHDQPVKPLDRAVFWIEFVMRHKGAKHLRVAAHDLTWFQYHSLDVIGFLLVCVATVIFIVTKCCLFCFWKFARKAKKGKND
The data set can be described thus: Drug metabolism in diabetic human kidney microsomes assessed as UGT2B7-mediated mycophenolic acid acyl glucuronide formation per pmol protein by HPLC and LC-MS/MS method. The data set is classed as ADME.

Data set [2] deals with T1, UDP-glucuronosyltransferase 2B7. The data set can be described thus: Uncompetitive substrate inhibition of UGT2B7 in non-diabetic human kidney microsomes assessed as reduction in enzyme-mediated mycophenolic acid phenolic 7-O-glucuronide formation by HPLC and LC-MS/MS method. The data set is classed as ADME.
For data set [3] the target is unchanged. Briefly: Ratio of Vmax to Km in non-diabetic human liver microsomes assessed as UGT2B7-mediated mycophenolic acid phenolic 7-O-glucuronide formation per pmol protein by HPLC and LC-MS/MS method. The data set is classed as ADME. On the technique in general: Liver microsomes are vesicles of endoplasmic reticulum, rich in cytochrome P450 enzymes.
The target is the same in data set [4]. Briefly: Ratio of Vmax to Km in non-diabetic human liver microsomes assessed as UGT2B7-mediated mycophenolic acid acyl glucuronide formation per pmol protein by HPLC and LC-MS/MS method. It is filed as ADME.
Data set [5] has the same target. Briefly: Drug metabolism in diabetic human liver microsomes assessed as UGT2B7-mediated mycophenolic acid acyl glucuronide formation per pmol protein by HPLC and LC-MS/MS method. The data set is classed as ADME.
The target is the same in data set [6]. The data set can be described thus: Drug metabolism in diabetic human kidney microsomes assessed as UGT2B7-mediated mycophenolic acid phenolic 7-O-glucuronide formation per pmol protein by HPLC and LC-MS/MS method. It is filed as ADME.
Data set [7] shares this target. Briefly: Ratio of Vmax to Km in non-diabetic human kidney microsomes assessed as UGT2B7-mediated mycophenolic acid phenolic 7-O-glucuronide formation per pmol protein by HPLC and LC-MS/MS method. It is filed as ADME.
The target is the same in data set [8]. The data set can be described thus: Ratio of Vmax to Km in non-diabetic human kidney microsomes assessed as UGT2B7-mediated mycophenolic acid acyl glucuronide formation per pmol protein by HPLC and LC-MS/MS method. The data set is classed as ADME.
For data set [9] the target is unchanged. The data set can be described thus: Uncompetitive substrate inhibition of UGT2B7 in non-diabetic human liver microsomes assessed as reduction in enzyme-mediated mycophenolic acid phenolic 7-O-glucuronide formation by HPLC and LC-MS/MS method. It is filed as ADME.
Data set [10] shares this target. Briefly: Uncompetitive substrate inhibition of UGT2B7 in diabetic human liver microsomes assessed as reduction in enzyme-mediated mycophenolic acid phenolic 7-O-glucuronide formation by HPLC and LC-MS/MS method. It is filed as ADME.
Data set [11] has the same target. Briefly: Uncompetitive substrate inhibition of UGT2B7 in diabetic human kidney microsomes assessed as reduction in enzyme-mediated mycophenolic acid phenolic 7-O-glucuronide formation by HPLC and LC-MS/MS method. It is filed as ADME.
The target is the same in data set [12]. Briefly: Uncompetitive substrate inhibition of UGT2B7 in diabetic human kidney microsomes assessed as reduction in enzyme-mediated mycophenolic acid acyl glucuronide formation by HPLC and LC-MS/MS method. It is filed as ADME.
The target is the same in data set [13]. Briefly: Uncompetitive substrate inhibition of UGT2B7 in diabetic human liver microsomes assessed as reduction in enzyme-mediated mycophenolic acid acyl glucuronide formation by HPLC and LC-MS/MS method. It is filed as ADME.
Data set [14] has the same target. Briefly: Uncompetitive substrate inhibition of UGT2B7 in non-diabetic human liver microsomes assessed as reduction in enzyme-mediated mycophenolic acid acyl glucuronide formation by HPLC and LC-MS/MS method. The data set is classed as ADME.
The target is the same in data set [15]. The data set can be described thus: Drug metabolism in diabetic human liver microsomes assessed as UGT2B7-mediated mycophenolic acid phenolic 7-O-glucuronide formation per pmol protein by HPLC and LC-MS/MS method. It is filed as ADME.
The target is the same in data set [16]. The data set can be described thus: Ratio of Vmax to Km in diabetic human kidney microsomes assessed as UGT2B7-mediated mycophenolic acid phenolic 7-O-glucuronide formation per pmol protein by HPLC and LC-MS/MS method. It is filed as ADME.
The target is the same in data set [17]. Briefly: Drug metabolism in non-diabetic human kidney microsomes assessed as UGT2B7-mediated mycophenolic acid phenolic 7-O-glucuronide formation per pmol protein by HPLC and LC-MS/MS method. The data set is classed as ADME.
The target is the same in data set [18]. The data set can be described thus: Uncompetitive substrate inhibition of UGT2B7 in non-diabetic human kidney microsomes assessed as reduction in enzyme-mediated mycophenolic acid acyl glucuronide formation by HPLC and LC-MS/MS method. It is filed as ADME.
The target is the same in data set [19]. Briefly: Ratio of Vmax to Km in diabetic human kidney microsomes assessed as UGT2B7-mediated mycophenolic acid acyl glucuronide formation per pmol protein by HPLC and LC-MS/MS method. It is filed as ADME.
For data set [20] the target is unchanged. The data set can be described thus: Ratio of Vmax to Km in diabetic human liver microsomes assessed as UGT2B7-mediated mycophenolic acid phenolic 7-O-glucuronide formation per pmol protein by HPLC and LC-MS/MS method. The data set is classed as ADME.
For data set [21] the target is unchanged. The data set can be described thus: Ratio of Vmax to Km in diabetic human liver microsomes assessed as UGT2B7-mediated mycophenolic acid acyl glucuronide formation per pmol protein by HPLC and LC-MS/MS method. It is filed as ADME.
The target is the same in data set [22]. Briefly: Drug metabolism in non-diabetic human liver microsomes assessed as UGT2B7-mediated mycophenolic acid acyl glucuronide formation per pmol protein by HPLC and LC-MS/MS method. It is filed as ADME.
Data set [23] has the same target. Briefly: Drug metabolism in non-diabetic human liver microsomes assessed as UGT2B7-mediated mycophenolic acid phenolic 7-O-glucuronide formation per pmol protein by HPLC and LC-MS/MS method. It is filed as ADME.
Data set [24] shares this target. Conditions: microsomes.
Data set [25] shares this target. Conditions: microsomes. The source holds these as a separate data set.
Data set [26] has the same target. Briefly: Drug metabolism in non-diabetic human liver microsomes assessed as UGT2B7-mediated zidovudine glucuronide formation per pmol protein by HPLC and LC-MS/MS method. It is filed as ADME.
The target is the same in data set [27]. Briefly: Drug metabolism in diabetic human liver microsomes assessed as UGT2B7-mediated zidovudine glucuronide formation per pmol protein by HPLC and LC-MS/MS method. It is filed as ADME.
For data set [28] the target is unchanged. Conditions: microsomes. This is another data set of the same source.
Data set [29] has the same target. Briefly: Ratio of Vmax to Km in diabetic human liver microsomes assessed as UGT2B7-mediated zidovudine glucuronide formation per pmol protein by HPLC and LC-MS/MS method. It is filed as ADME. Conditions: […].
The target is the same in data set [30]. Conditions: microsomes. The source holds these as a separate data set.
Data set [31] has the same target. The data set can be described thus: Drug metabolism in non-diabetic human kidney microsomes assessed as UGT2B7-mediated zidovudine glucuronide formation per pmol protein by HPLC and LC-MS/MS method. The data set is classed as ADME.
For data set [32] the target is unchanged. The data set can be described thus: Drug metabolism in diabetic human kidney microsomes assessed as UGT2B7-mediated zidovudine glucuronide formation per pmol protein by HPLC and LC-MS/MS method. The data set is classed as ADME.
Substrate in data set [33]: COc1c(C)c2c(c(O)c1C/C=C(\C)CCC(=O)O)C(=O)OC2
The data set can be described thus: Drug metabolism in non-diabetic human kidney microsomes assessed as UGT2B7-mediated mycophenolic acid phenolic 7-O-glucuronide formation by HPLC and LC-MS/MS method. The data set is classed as ADME.

Substrate in data set [34]: COc1c(C)c2c(c(O)c1C/C=C(\C)CCC(=O)O)C(=O)OC2
The data set can be described thus: Drug metabolism in non-diabetic human liver microsomes assessed as UGT2B7-mediated mycophenolic acid acyl glucuronide formation by HPLC and LC-MS/MS method. It is filed as ADME.

Substrate in data set [35]: COc1c(C)c2c(c(O)c1C/C=C(\C)CCC(=O)O)C(=O)OC2
Briefly: Drug metabolism in non-diabetic human kidney microsomes assessed as UGT2B7-mediated mycophenolic acid acyl glucuronide formation by HPLC and LC-MS/MS method. The data set is classed as ADME.

Substrate in data set [36]: COc1c(C)c2c(c(O)c1C/C=C(\C)CCC(=O)O)C(=O)OC2
The data set can be described thus: Drug metabolism in diabetic human liver microsomes assessed as UGT2B7-mediated mycophenolic acid phenolic 7-O-glucuronide formation by HPLC and LC-MS/MS method. It is filed as ADME.

Substrate in data set [37]: COc1c(C)c2c(c(O)c1C/C=C(\C)CCC(=O)O)C(=O)OC2
Briefly: Drug metabolism in diabetic human liver microsomes assessed as UGT2B7-mediated mycophenolic acid acyl glucuronide formation by HPLC and LC-MS/MS method. The data set is classed as ADME.

Substrate in data set [38]: COc1c(C)c2c(c(O)c1C/C=C(\C)CCC(=O)O)C(=O)OC2
The data set can be described thus: Drug metabolism in diabetic human kidney microsomes assessed as UGT2B7-mediated mycophenolic acid phenolic 7-O-glucuronide formation by HPLC and LC-MS/MS method. It is filed as ADME.

Substrate in data set [39]: COc1c(C)c2c(c(O)c1C/C=C(\C)CCC(=O)O)C(=O)OC2
Briefly: Drug metabolism in non-diabetic human liver microsomes assessed as UGT2B7-mediated mycophenolic acid phenolic 7-O-glucuronide formation by HPLC and LC-MS/MS method. The data set is classed as ADME.

Substrate in data set [40]: COc1c(C)c2c(c(O)c1C/C=C(\C)CCC(=O)O)C(=O)OC2
Briefly: Drug metabolism in diabetic human kidney microsomes assessed as UGT2B7-mediated mycophenolic acid acyl glucuronide formation by HPLC and LC-MS/MS method. It is filed as ADME.

These results are taken from ChEMBL document CHEMBL3526023 (Drug Metab Dispos, 2011).

As usually defined, the Vmax is the rate approached at saturating substrate. In general, Km refers to the concentration of substrate that gives half-maximal velocity.

On to `COc1c(C)c2c(c(O)c1C/C=C(\C)CCC(=O)O)C(=O)OC2` [MYCOPHENOLIC ACID], for which the Vmax amounted to 0.43 pmol/min in data set [1]; 0.76 pmol/min in data set [5]; 38.8 pmol/min in [6]; 15.7 pmol/min in data set [15]; 26.4 pmol/min in data set [17]; 2.43 pmol/min in data set [22]. In addition, in data set [23], the Vmax was 10.6 pmol/min. Also, the Ki in [2] was 1500 nM; in [9], 1500 nM; in data set [10], 1500 nM; in data set [11], 1500 nM; in data set [12] it was 2000 nM; in data set [13] it was 2000 nM. Besides, the Ki in data set [14] and in data set [18] was 2000 nM each time. In addition, the Vmax/Km in data set [3] was found to be 22.9 nL/min; in [4] it was 4.08 nL/min; in data set [7], 27.6 nL/min; in data set [8], 0.41 nL/min; in data set [16], 34.1 nL/min; in data set [19], 0.12 nL/min. Moreover, the Vmax/Km came to 31.3 nL/min in [20] and 1.51 nL/min in data set [21].

For the molecule `Cc1cn([C@H]2C[C@H](N=[N+]=[N-])[C@@H](CO)O2)c(=O)[nH]c1=O` [ZIDOVUDINE], the Km in [24] was 307 µM; in [25] it was 330 µM; in [28], 519 µM; in data set [30] it was 519 µM. The maximum rate (Vmax) was found to be 1214 pmol/min in data set [26], 274 pmol/min in data set [27], 20.5 pmol/min in data set [31] and 6.52 pmol/min in data set [32]. The Vmax/Km in [29] was determined as 0.87 nL/min.

B1: UDP-glucuronosyltransferase 2B7 (Homo sapiens) (protein)
chain: T1 sequence (P16662 whole entry)
For the molecule B1, the Km stood at 1010 µM in data set [33]; 601 µM in data set [34]; 3010 µM in [35]; 482 µM in data set [36]; 502 µM in data set [37]; 1160 µM in data set [38]. Besides, the Km in data set [39] is 454 µM; in data set [40], 3430 µM.
